For 21 compounds, inhibition, IC50 and Activity results are on record in ChEMBL document CHEMBL1139933, “Synthesis of andrographolide derivatives: a new family of alpha-glucosidase inhibitors” (Bioorg Med Chem, 2007).

pIC50: −log10 of the molar value. Active and inactive are the calls of the source. The rule behind the calls is not given here.

The target in the first test is T1, Maltase-glucoamylase (Homo sapiens, UniProt O43451). Kind of test: Inhibition of alpha-glucosidase at 1 mM.
Target sequence in this assay (O43451 whole entry, looked up): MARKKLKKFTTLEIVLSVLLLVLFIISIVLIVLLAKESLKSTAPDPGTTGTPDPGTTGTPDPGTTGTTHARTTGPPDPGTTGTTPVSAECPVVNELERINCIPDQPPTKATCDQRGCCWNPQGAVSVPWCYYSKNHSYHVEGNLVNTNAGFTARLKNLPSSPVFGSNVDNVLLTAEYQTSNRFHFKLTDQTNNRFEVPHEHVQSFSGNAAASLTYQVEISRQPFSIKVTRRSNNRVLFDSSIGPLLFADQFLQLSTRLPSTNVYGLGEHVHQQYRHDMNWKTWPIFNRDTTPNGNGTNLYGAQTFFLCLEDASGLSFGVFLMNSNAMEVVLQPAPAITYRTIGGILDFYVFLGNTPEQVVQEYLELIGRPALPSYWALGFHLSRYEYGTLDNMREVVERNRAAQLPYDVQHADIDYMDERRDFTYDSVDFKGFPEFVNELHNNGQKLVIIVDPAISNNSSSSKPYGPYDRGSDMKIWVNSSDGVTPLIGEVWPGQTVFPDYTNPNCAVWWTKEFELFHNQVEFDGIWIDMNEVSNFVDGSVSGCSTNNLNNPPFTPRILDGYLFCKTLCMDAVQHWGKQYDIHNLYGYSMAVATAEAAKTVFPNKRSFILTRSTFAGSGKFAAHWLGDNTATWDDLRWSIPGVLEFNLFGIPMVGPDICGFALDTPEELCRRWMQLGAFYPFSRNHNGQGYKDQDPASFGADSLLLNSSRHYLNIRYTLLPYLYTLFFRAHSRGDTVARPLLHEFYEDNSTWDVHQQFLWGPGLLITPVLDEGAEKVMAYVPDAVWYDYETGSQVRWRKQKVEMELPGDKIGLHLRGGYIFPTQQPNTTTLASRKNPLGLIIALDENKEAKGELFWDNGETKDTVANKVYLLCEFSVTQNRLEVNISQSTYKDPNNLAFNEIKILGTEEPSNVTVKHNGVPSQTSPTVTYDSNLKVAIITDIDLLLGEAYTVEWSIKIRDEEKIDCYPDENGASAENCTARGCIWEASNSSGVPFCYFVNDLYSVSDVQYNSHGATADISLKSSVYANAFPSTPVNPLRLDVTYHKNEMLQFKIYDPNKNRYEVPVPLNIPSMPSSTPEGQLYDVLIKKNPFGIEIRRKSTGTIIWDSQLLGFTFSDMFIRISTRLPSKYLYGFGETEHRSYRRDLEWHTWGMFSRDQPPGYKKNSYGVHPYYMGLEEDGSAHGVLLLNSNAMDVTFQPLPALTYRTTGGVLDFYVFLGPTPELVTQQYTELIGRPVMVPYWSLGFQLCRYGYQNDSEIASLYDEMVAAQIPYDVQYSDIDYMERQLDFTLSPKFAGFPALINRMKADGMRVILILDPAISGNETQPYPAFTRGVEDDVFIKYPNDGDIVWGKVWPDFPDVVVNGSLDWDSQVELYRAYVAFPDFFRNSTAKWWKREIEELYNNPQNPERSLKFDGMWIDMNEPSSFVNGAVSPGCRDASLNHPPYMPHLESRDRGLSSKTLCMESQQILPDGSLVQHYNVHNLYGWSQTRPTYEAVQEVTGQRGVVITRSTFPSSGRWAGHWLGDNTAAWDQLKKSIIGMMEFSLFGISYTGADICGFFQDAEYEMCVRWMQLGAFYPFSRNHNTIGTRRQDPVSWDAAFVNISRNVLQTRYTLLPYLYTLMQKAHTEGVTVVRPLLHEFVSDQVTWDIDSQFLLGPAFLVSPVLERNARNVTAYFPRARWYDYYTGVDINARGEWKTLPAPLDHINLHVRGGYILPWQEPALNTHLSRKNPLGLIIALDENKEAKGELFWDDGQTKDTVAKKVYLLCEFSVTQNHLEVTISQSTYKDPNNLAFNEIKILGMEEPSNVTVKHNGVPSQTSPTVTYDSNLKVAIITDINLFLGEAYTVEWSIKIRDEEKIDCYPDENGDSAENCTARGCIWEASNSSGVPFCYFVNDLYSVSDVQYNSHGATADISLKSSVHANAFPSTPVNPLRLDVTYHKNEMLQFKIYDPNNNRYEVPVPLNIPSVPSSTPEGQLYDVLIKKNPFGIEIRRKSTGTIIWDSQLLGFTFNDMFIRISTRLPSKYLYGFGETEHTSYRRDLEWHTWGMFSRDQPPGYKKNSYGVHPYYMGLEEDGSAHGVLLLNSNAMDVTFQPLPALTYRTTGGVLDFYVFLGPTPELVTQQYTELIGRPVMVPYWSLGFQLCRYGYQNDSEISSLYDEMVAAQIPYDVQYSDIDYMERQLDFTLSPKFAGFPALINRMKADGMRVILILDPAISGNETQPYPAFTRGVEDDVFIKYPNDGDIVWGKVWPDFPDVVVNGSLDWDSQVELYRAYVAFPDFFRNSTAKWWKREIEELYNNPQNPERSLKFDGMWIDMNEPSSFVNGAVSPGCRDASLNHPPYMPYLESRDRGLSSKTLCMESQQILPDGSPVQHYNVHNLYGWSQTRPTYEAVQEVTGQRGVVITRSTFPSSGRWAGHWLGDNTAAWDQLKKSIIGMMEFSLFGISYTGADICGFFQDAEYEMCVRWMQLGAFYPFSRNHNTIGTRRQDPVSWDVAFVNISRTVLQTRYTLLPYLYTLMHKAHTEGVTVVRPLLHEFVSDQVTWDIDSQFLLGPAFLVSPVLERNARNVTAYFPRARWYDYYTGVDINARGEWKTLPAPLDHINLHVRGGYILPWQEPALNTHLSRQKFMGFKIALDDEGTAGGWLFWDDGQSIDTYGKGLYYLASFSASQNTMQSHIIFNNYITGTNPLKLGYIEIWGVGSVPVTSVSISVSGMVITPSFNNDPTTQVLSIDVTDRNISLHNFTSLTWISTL
Broadly, the inhibition is the drop in the measured response relative to a control, in per cent. A lower inhibition goes with little suppression. In turn, `C[C@H]1O[C@H](O[C@H]2[C@H](O)[C@@H](O)[C@@H](O[C@H]3[C@H](O)[C@@H](O)C(O)O[C@@H]3CO)O[C@@H]2CO)[C@H](O)[C@@H](O)[C@@H]1N[C@H]1C=C(CO)[C@@H](O)[C@H](O)[C@H]1O` (stereo partly specified) displayed an inhibition of 56.5%.

A further test addresses T1, Maltase-glucoamylase. The test is described as follows: Inhibition of alpha-glucosidase.
Target sequence in this assay (O43451 whole entry): as the sequence (O43451 whole entry, looked up) above
In general, pIC50 refers to −log10 of the IC50, conventionally taken in molar units. The low end stands for a high IC50, the high end for a low IC50. For the compound `C=C1CC[C@@H]2[C@](C)(CO)[C@H](O)CC[C@@]2(C)[C@@H]1/C=C/C1=CC(=C/c2ccc(OC)cc2)/OC1=O`, the pIC50 is 4.80.

The target in a further test is T1, Maltase-glucoamylase. The test is described as follows: Inhibition of alpha-glucosidase at 100 uM.
Target sequence in this assay (O43451 whole entry, looked up): as above
For the compound `C=C1CC[C@@H]2[C@](C)(COC(=O)c3cccnc3)[C@H](OC(=O)c3cccnc3)CC[C@@]2(C)[C@@H]1/C=C/C1=CC(=C\C(C)=C\CCC/C=C/C)/OC1=O`, the inhibition came out at 68.9%.
Take `C=C1CC[C@@H]2[C@](C)(COC(=O)c3cccnc3)[C@H](OC(=O)c3cccnc3)CC[C@@]2(C)[C@@H]1/C=C/C1=CC(=C\c2ccc(OC)cc2)/OC1=O`: the inhibition came out at 100%.
The compound `C=C1CC[C@@H]2[C@](C)(CO)[C@H](O)CC[C@@]2(C)[C@@H]1/C=C/C1=CC(=C/c2ccco2)/OC1=O` had an inhibition of 49.6%.
On to `C=C1CC[C@@H]2[C@](C)(CO)[C@H](O)CC[C@@]2(C)[C@@H]1/C=C/C1=CC(=C/c2ccccc2)/OC1=O`, for which the inhibition was 84.3%.
For `C=C1CC[C@@H]2[C@](C)(CO)[C@H](O)CC[C@@]2(C)[C@@H]1C/C=C1/C(=O)OC[C@H]1O`, the outcome was inactive.
Turning to `C[C@]1(CO)[C@H]2CC[C@@]3(CO3)[C@@H](C/C=C3/C(=O)OC[C@H]3O)[C@]2(C)CC[C@H]1O`, the result was inactive.
Turning to `C=C1CC[C@@H]2[C@](C)(COC(=O)c3cccnc3)[C@H](OC(=O)c3cccnc3)CC[C@@]2(C)[C@@H]1/C=C/C1=CC(=C\c2ccc(Cl)cc2)/OC1=O`, the inhibition worked out at 100%.
Turning to `C=C1CC[C@@H]2[C@](C)(CO)[C@H](O)CC[C@@]2(C)[C@@H]1/C=C/C1=CC(=C/c2ccc(F)cc2)/OC1=O`, the outcome was inactive.
The compound `C=C1CC[C@@H]2[C@](C)(COC(=O)c3cccnc3)[C@H](OC(=O)c3cccnc3)CC[C@@]2(C)[C@@H]1/C=C/C1=CC(=C\c2cccc(Br)c2)/OC1=O` displayed an inhibition of 100%.
Consider `C=C1CC[C@@H]2[C@](C)(CO)[C@H](O)CC[C@@]2(C)[C@@H]1/C=C/C1=CC(=C/c2ccc(Cl)cc2)/OC1=O`, for which the result was inactive.
As to `C=C1CC[C@@H]2[C@](C)(COC(=O)c3cccnc3)[C@H](OC(=O)c3cccnc3)CC[C@@]2(C)[C@@H]1/C=C/C1=CC(=C\c2ccccc2)/OC1=O`, the inhibition came out at 100%.
`C=C1CC[C@@H]2[C@](C)(CO)[C@H](O)CC[C@@]2(C)[C@@H]1/C=C/C1=CC(=C/c2ccc3c(c2)OCO3)/OC1=O`: the inhibition stood at 59.3%.
As for `C=C1CC[C@@H]2[C@](C)(CO)[C@H](O)CC[C@@]2(C)[C@@H]1CCC1CCOC1=O` (stereo partly specified), the result was inactive.
Take `C=C1CC[C@@H]2[C@](C)(CO)[C@H](O)CC[C@@]2(C)[C@@H]1/C=C/C1=CC(=C\C(C)=C\CCC/C=C/C)/OC1=O`: the outcome was inactive.
`C=C1CC[C@@H]2[C@](C)(COC(=O)c3cccnc3)[C@H](OC(=O)c3cccnc3)CC[C@@]2(C)[C@@H]1/C=C/C1=CC(=C/c2ccco2)/OC1=O` came in with an inhibition of 95.9%.
Turning to `C=C1CC[C@@H]2[C@](C)(CO)[C@H](O)CC[C@@]2(C)[C@@H]1/C=C/C1=CC(=C/c2cc(OC)c(OC)cc2OC)/OC1=O`, the inhibition came out at 57.8%.
`C=C1CC[C@@H]2[C@](C)(COC(=O)c3cccnc3)[C@H](OC(=O)c3cccnc3)CC[C@@]2(C)[C@@H]1/C=C/C1=CC(=C\c2ccc(N(C)C)cc2)/OC1=O` had an inhibition of 74.8%.
Compound `C=C1CC[C@@H]2[C@](C)(CO)[C@H](O)CC[C@@]2(C)[C@@H]1/C=C/C1=CC(=C/c2ccc(N(C)C)cc2)/OC1=O` yielded an inhibition of 60.6%.
Still for that read-out and setting: as for `C=C1CC[C@@H]2[C@]3(C)COCO[C@@H]3CC[C@@]2(C)[C@@H]1CC(O)C1=CCOC1=O` (stereo partly specified), the figure is 6.9%.
